This is an account of results in paper PMC2895808 (Vaccine, 2010).

Among the targets are HLA A*0202 (Homo sapiens, UniProt P04439, D140Y/D185E/D98H/E176V/E277Q/G131W/G231S/I119L/I121R/I166T/I218V/L180W/L300P/L318F/N151K/N90K/P208A/P217A/Q67R/Q86G/Q94H/R138H/R169H/T345S); HLA A*6802 (Homo sapiens, UniProt P04439, A269V/D140Y/D185E/E176V/E277Q/E87N/F33Y/G231S/I121R/I166T/I218V/L180W/L300P/L318F/N151K/P208A/P217A/Q86R/R138H/R169H/S129P/T345S/V36M); HLA A*0203 (Homo sapiens, UniProt P04439, A173T/D140Y/D185E/D98H/E277Q/G131W/G231S/I119V/I121R/I166T/I218V/L180W/L300P/L318F/N151K/N90K/P208A/P217A/Q86G/Q94H/R138H/R169H/T345S); HLA B*0702 (Homo sapiens, UniProt P01889); HLA B*3501 (Homo sapiens, UniProt P01889, A329T/A93T/A95T/C349S/D201E/D98Y/E176V/E187L/E204Q/E69T/I218V/K202T/L119I/Q94N/R155S/R180L/S121R/S35A/S48A/T118I/V127L/V306I/V36M/Y140S/Y91F); HLA B*3503 (Homo sapiens, UniProt P01889, A329T/A93T/A95T/C349S/D201E/D98Y/E176V/E187L/E204Q/E69T/I218V/K202T/L119I/Q94N/R155S/R180L/S121R/S35A/S48A/T118I/V127L/V306I/V36M/Y140F/Y91F); HLA B*4201 (Homo sapiens, UniProt P01889, D138N/E176V/E187T/K202T/R180D); HLA B*5101 (Homo sapiens, UniProt P01889, A329T/A93T/A95T/C349S/D138N/D201E/D98Y/E187L/E204Q/E69T/G107R/I218V/K202T/L105A/L119W/N104I/Q94N/R106L/R155S/R180L/S101N/S121T/S35A/S48A/V306I/V36M/Y195H/Y91F); HLA B*5301 (Homo sapiens, UniProt P01889, A329T/A93T/A95T/C349S/D201E/D98Y/E176V/E187L/E204Q/E69T/G107R/I218V/K202T/L105A/L119I/N104I/Q94N/R106L/R155S/R180L/S101N/S121R/S35A/S48A/T118I/V127L/V306I/V36M/Y140S/Y91F); HLA B*5401 (Homo sapiens, UniProt P01889, A329T/C349S/D138N/D201E/E176V/E187T/E204Q/E69G/I76V/K202T/L119W/R155S/R180L/S121T/S35A/S48A/V127L/V306I/V36M/Y140L).

Common to all, as to assay: biochemical

Ends that are not written are not given here. Some results are limits rather than exact numbers.

By IC50 is commonly meant the point on the concentration scale where inhibition reaches its midpoint. Lower therefore signals higher potency. Turning to `CSCC[C@H](NC(=O)[C@H](Cc1ccccc1)NC(=O)[C@@H](NC(=O)[C@@H](NC(=O)[C@H](Cc1ccccc1)NC(=O)[C@@H](NC(=O)[C@@H](N)C(C)C)C(C)C)C(C)C)C(C)C)C(=O)NCC(=O)N[C@H](C(=O)O)C(C)C` [Peptide 7103.0001], the IC50 against HLA A*0202 is 3.45 µM; on HLA A*6802, 0.039 µM.
As for `CC(C)C[C@H](NC(=O)[C@H](Cc1ccccc1)NC(=O)[C@@H](NC(=O)[C@@H](NC(=O)[C@H](Cc1ccccc1)NC(=O)[C@@H]1CCCN1C(=O)[C@@H](NC(=O)[C@H](CC(C)C)NC(=O)[C@@H](N)Cc1ccccc1)C(C)C)C(C)C)C(C)C)C(=O)O` [Peptide 7103.0003], the IC50 against HLA A*0202 was less than 0.0001 µM; against HLA A*0203, 0.00011 µM; on HLA A*6802, 0.0015 µM.
Turning to HPGSVNEFDF [HF10], the IC50 on HLA B*0702 is 3.62 µM; against HLA B*3501 it was 2.09 µM; on HLA B*3503, 11.5 µM; against HLA B*4201 it was 0.877 µM; on HLA B*5101, 14.7 µM; against HLA B*5301 it was 5.52 µM. The molecule also gave an IC50 against HLA B*5401 of 0.854 µM.
